In patent US9546151B2, “VMAT inhibitory compounds” (Oregon Health & Science University, priority 2014, dated 2017):
Structures can show the parent of a compound that is named as a salt. Where two headings read alike, the source gives them in different places.

Columns and labels:
VMAT2 [1] = target: T1, VMAT2 (Homo sapiens, UniProt Q05940); test: hVMAT2 [3H]DTBZ ([3H]DHTB) binding assay; parameters: expressed in transfected cells; host or cells: HEK (human embryonic kidney) cells
Experimental: (§1) Membrane preparation for binding, uptake and release assays using HEK-hVMAT2 cells: Human embryonic kidney cells expressing the human vesicular monoamine transporter 2 (HEK-hVMAT2) were used. HEK-hVMAT2 cells were grown until confluent. The media was removed from plates, solution A [sucrose (0.32 M) with protease inhibitors] was added to the plate, and cells were scraped from plate. Cells were homogenized with 12 strokes of a glass/glass homogenizer. The homogenate was centrifuged at 800×g for 10 min. The supernatant was removed and saved, and the pellet was resuspended, homogenized and centrifuged as above. The supernatants were combined and centrifuged at 10,000×g for 20 min. The pellet was resuspended in solution A (0.75 ml). The membranes were osmotically shocked by addition of 2.625 ml ice cold water and homogenized by 5 strokes of a glass/Teflon homogenizer. The osmolarity was reestablished with addition of Tris (338 μl, 0.25M, pH 7.4 at 4° C.), sodium potassium tartrate (338 μl, 1.0 M), and MgSO4 (4 μl, 0.9M). The homogenate was centrifuged at 20,000×g for 20 min.
Binding was terminated by filtration over Whatman GF/C filters using a Tomtec 96-well cell harvester. Filters were washed for six seconds with ice-cold saline. Scintillation fluid was added to each square and radioactivity remaining on the filters was determined using a Wallac μ- or beta-plate reader. Specific binding was defined as the difference in binding observed in the presence and absence of Ro4-1284 (10 μM, generously supplied by Hoffman LaRoche). Three or more independent competition experiments were conducted with duplicate determinations.

VMAT2 [2] = target: T1, VMAT2; test: hVMAT2 5HT Uptake; assay type: biochemical; parameters: expressed in transfected cells; host or cells: HEK (human embryonic kidney) cells
Experimental: as §1

[3] = cells printed in μM under a head in nM, HEK-hVMAT2 membranes
[4] = [^3H]5HT uptake, HEK-hVMAT2 preparation, read-out: hVMAT2 5HT Uptake IC50 (nM) ± SEM

T1 sequence (Q05940 whole entry): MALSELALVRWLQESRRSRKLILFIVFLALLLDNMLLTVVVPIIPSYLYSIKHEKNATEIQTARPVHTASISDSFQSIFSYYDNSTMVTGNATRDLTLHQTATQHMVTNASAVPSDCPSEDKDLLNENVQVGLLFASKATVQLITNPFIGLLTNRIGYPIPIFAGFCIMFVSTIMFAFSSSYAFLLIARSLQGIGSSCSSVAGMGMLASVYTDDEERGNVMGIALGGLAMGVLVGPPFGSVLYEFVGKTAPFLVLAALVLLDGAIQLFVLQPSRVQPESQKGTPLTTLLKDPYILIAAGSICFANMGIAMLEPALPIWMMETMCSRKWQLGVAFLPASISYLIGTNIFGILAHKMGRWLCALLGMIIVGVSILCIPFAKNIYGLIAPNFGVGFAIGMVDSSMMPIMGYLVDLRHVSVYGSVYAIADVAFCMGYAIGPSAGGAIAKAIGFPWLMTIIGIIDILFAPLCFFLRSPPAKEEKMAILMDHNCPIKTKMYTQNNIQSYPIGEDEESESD

For `CCOC(=O)[C@H]1CN(CCn2c(=O)[nH]c3ccccc3c2=O)CC[C@H]1c1ccccc1F` (racemic) [Compound 5x, (±)-syn-Ethyl 1-(2-(2,4-dioxo-1,2-dihydroquinazolin-3(4H)-yl)ethyl)-4-(2-fluorophenyl)piperidine-3-carboxylate], the melting point was 182.8 to 183.6 °C, the Ki (VMAT2 [1]; [3]) was > 10 µM and the IC50 (VMAT2 [2]; [4]) was 28 ± 12 nM.
For `CCOC(=O)[C@@H]1CN(CCn2c(=O)[nH]c3sccc3c2=O)CC[C@@H]1c1cccc(C(F)(F)F)c1` (relative stereo) [Compound 7d, syn-ethyl 1-(2-(2,4-dioxo-1,2-dihydrothieno[2,3-d]pyrimidin-3(4H)-yl)ethyl)-4-(3-(trifluoromethyl)phenyl)piperidine-3-carboxylate], the melting point was 153.5 to 156.5 °C, the Ki (VMAT2 [1]; [3]) was > 10 µM and the IC50 (VMAT2 [2]; [4]) was 342 ± 103 nM.
Work on `CCOC(=O)[C@H]1CN(CCn2c(=O)[nH]c3ccccc3c2=O)CC[C@H]1c1ccc(C(C)C)cc1` (racemic) (as salt: HCl) [Compound 5u, (±)-syn-Ethyl 1-(2-(2,4-dioxo-1,2-dihydroquinazolin-3(4H),-yl)ethyl)-4-(4-isopropylphenyl) piperidine-3-carboxylate] yielded a melting point of 153 to 154 °C.
In the case of `CCOC(=O)[C@@H]1CN(CCn2c(=O)c3ccccc3n(Cc3ccccc3)c2=O)CC[C@@H]1c1ccc(F)cc1` (racemic) [Compound 6c, (±) syn-ethyl 1-(2-(1-benzyl-2,4-dioxo-1,2-dihydroquinazolin-3(4H)-yl)ethyl)-4-(4-fluorophenyl)piperidine-3-carboxylate], the melting point is reported as 134.9 to 136.4 °C, the Ki (VMAT2 [1]; [3]) is reported as > 7 µM and the IC50 (VMAT2 [2]; [4]) is reported as 270 ± 53 nM.
For `CCOC(=O)[C@H]1CN(CCn2c(=O)[nH]c3ccccc3c2=O)CC[C@H]1c1cccc(N(C)C)c1` (racemic) (as salt: HCl) [Compound 5aa, (±)-syn-Ethyl 4-(3-(dimethylamino)phenyl)-1-(2-(2,4-dioxo-1,2-dihydroquinazolin-3(4H),-yl)ethyl) piperidine-3-carboxylate], the melting point was 179 to 180 °C.
In the case of `CCOC(=O)[C@@H]1CN(CCn2c(=O)[nH]c3ccccc3c2=O)CC[C@@H]1c1cccc(Cl)c1` (racemic) [Compound 5pp, (±) syn-ethyl 4-(3-chlorophenyl)-1-(2-(2,4-dioxo-1,2-dihydroquinazolin-3(4H)-yl)ethyl)piperidine-3-carboxylate], the melting point is reported as 161.8 to 162.9 °C, the Ki (VMAT2 [1]; [3]) is reported as > 9 µM and the IC50 (VMAT2 [2]; [4]) is reported as 34 ± 8 nM.
Work on `CCOC(=O)[C@H]1CN(CCn2c(=O)[nH]c3ccccc3c2=O)CC[C@H]1c1ccc(CC)cc1` (racemic) (as salt: HCl) [Compound 5t, (±)-syn-Ethyl 1-(2-(2,4-dioxo-1,2-dihydroquinazolin-3(4H),-yl)ethyl)-4-(4-ethylphenyl) piperidine-3-carboxylate] yielded a melting point of 145 to 146 °C.
In the case of `CCOC(=O)[C@@H]1CN(CCn2c(=O)[nH]c3ccccc3c2=O)CC[C@@H]1c1cccc(F)c1` (racemic) [Compound 5e], the melting point is reported as 170.6 to 171.4 °C, the Ki (VMAT2 [1]; [3]) is reported as > 10 µM and the IC50 (VMAT2 [2]; [4]) is reported as 63 ± 10 nM.
In the case of `CCOC(=O)[C@@H]1CN(CCn2c(=O)[nH]c3sccc3c2=O)CC[C@@H]1c1ccc(F)cc1` (racemic) [Compound 7a, (±) syn-ethyl 1-(2-(2,4-dioxo-1,2-dihydrothieno[2,3-d]pyrimidin-3(4H)-yl)ethyl)-4-(4-fluorophenyl)piperidine-3-carboxylate], the melting point is reported as 198.8 to 201.4 °C, the Ki (VMAT2 [1]; [3]) is reported as > 10 µM and the IC50 (VMAT2 [2]; [4]) is reported as 133 ± 20 nM.
`CCOC(=O)[C@H]1CN(CCN2C(=O)c3ccccc3C2=O)CC[C@H]1c1ccc(F)cc1` (racemic) (as salt: HCl) [Example 144, (±)-syn-Ethyl 1-(2-(1,3-dioxoisoindolin-2-yl)ethyl)-4-(4-fluorophenyl)piperidine-3-carboxylate] showed a melting point of 104.5 to 105.5 °C.
With `CCOC(=O)[C@@H]1CN(CCn2c(=O)[nH]c3ccccc3c2=O)CC[C@@H]1c1ccc([N+](=O)[O-])cc1` (racemic) [Compound 5tt, (±)-syn-Ethyl 4-(4-nitrophenyl)-1-(2-(2,4-dioxo-1,2-dihydroquinazolin-3(4H)-yl)ethyl)piperidine-3-carboxylate] the melting point was 216 to 217.4 °C, the Ki (VMAT2 [1]; [3]) was > 10 µM and the IC50 (VMAT2 [2]; [4]) was 758 ± 165 nM.
In the case of `CCOC(=O)[C@@H]1CN(CCn2c(=O)[nH]c3ccccc3c2=O)CC[C@@H]1c1ccc(F)c(F)c1` (racemic) [Compound 5ss, (±)-syn-Ethyl 4-(3,4-difluorophenyl)-1-(2-(2,4-dioxo-1,2-dihydroquinazolin-3(4H)-yl)ethyl)piperidine-3-carboxylate], the melting point is reported as 196.6 to 198.4 °C, the Ki (VMAT2 [1]; [3]) is reported as > 10 µM and the IC50 (VMAT2 [2]; [4]) is reported as 100 ± 19 nM.
For `CCOC(=O)[C@H]1CN(CCn2c(=O)[nH]c3ccccc3c2=O)CC[C@H]1c1ccc(OC)c(OC)c1` (racemic) (as salt: HCl) [Compound 5dd, (±)-syn-Ethyl 4-(3,4-dimethoxyphenyl)-1-(2-(2,4-dioxo-1,2-dihydroquinazolin-3(4H),-yl)ethyl) piperidine-3-carboxylate], the melting point was 154.5 to 155.5 °C.
`CCOC(=O)C1=C(c2ccc(F)cc2)CCN(CCn2c(=O)[nH]c3ccccc3c2=O)C1` gave a melting point of 150 to 152 °C.
`CCOC(=O)[C@H]1CN(CCn2c(=O)[nH]c3ccccc3c2=O)CC[C@H]1c1ccccc1C` (racemic) (as salt: HCl) [Compound 5z, (±)-syn-Ethyl 1-(2-(2,4-dioxo-1,2-dihydroquinazolin-3(4H),-yl)ethyl)-4-(o-tolyl)piperidine-3-carboxylate] gave a melting point of 174 to 175 °C.
Work on `CCOC(=O)[C@@H]1CN(CCn2c(=O)c3ccccc3n(C)c2=O)CC[C@@H]1c1ccc(F)cc1` (racemic) [Compound 6a, (±) syn-ethyl 4-(4-fluorophenyl)-1-(2-(1-methyl-2,4-dioxo-1,2-dihydroquinazolin-3(4H)-yl)ethyl)piperidine-3-carboxylate] yielded a melting point of 131.1 to 133 °C.
With `CCOC(=O)[C@@H]1CN(CCn2c(=O)[nH]c3sccc3c2=O)CC[C@@H]1c1ccc(C(F)(F)F)cc1` (racemic) [Compound 7c, (±) syn-ethyl 1-(2-(2,4-dioxo-1,2-dihydrothieno[2,3-d]pyrimidin-3(4H)-yl)ethyl)-4-(4-(trifluoromethyl)phenyl)piperidine-3-carboxylate] the melting point was 190.3 to 191.5 °C, the Ki (VMAT2 [1]; [3]) was > 10 µM and the IC50 (VMAT2 [2]; [4]) was 1470 ± 65 nM.
In the case of `CCOC(=O)[C@H]1CN(CCCCn2c(=O)[nH]c3ccccc3c2=O)CC[C@H]1c1ccc(F)cc1` (racemic) [n=3, (±)-syn-Ethyl 1-(4-(2,4-dioxo-1,2-dihydroquinazolin-3(4H)-yl)butyl)-4-(4-fluorophenyl)piperidine-3-carboxylate], the melting point is reported as 148.5 to 149.7 °C, the Ki (VMAT2 [1]) is reported as > 10 µM and the IC50 (VMAT2 [2]) is reported as 133 ± 52 nM.
`O=c1[nH]c2ccccc2c(=O)n1CCN1CCC(c2ccc(F)cc2)CC1` [Compound 16, 3-(2-(4-(4-fluorophenyl)piperidin-1-yl)ethyl)quinazoline-2,4(1H,3H)-dione] showed a melting point of 263 to 264 °C.
In the case of `CCOC(=O)[C@@H]1CN(CCn2c(=O)[nH]c3sccc3c2=O)CC[C@@H]1c1cccc(F)c1` (racemic) [Compound 7b, (±) syn-ethyl 1-(2-(2,4-dioxo-1,2-dihydrothieno[2,3-d]pyrimidin-3(4H)-yl)ethyl)-4-(3-fluorophenyl)piperidine-3-carboxylate], the melting point is reported as 153.3 to 155.1 °C, the Ki (VMAT2 [1]; [3]) is reported as > 10 µM and the IC50 (VMAT2 [2]; [4]) is reported as 200 ± 51 nM.
With `CCOC(=O)[C@@H]1CN(CCn2c(=O)[nH]c3ccccc3c2=O)CC[C@@H]1c1ccc(Cl)cc1` (racemic) [Compound 5oo, (±) syn-ethyl 4-(4-chlorophenyl)-1-(2-(2,4-dioxo-1,2-dihydroquinazolin-3(4H)-yl)ethyl)piperidine-3-carboxylate] the melting point was 194.8 to 196.1 °C, the Ki (VMAT2 [1]; [3]) was > 10 µM and the IC50 (VMAT2 [2]; [4]) was 49 ± 1 nM.
For `CCOC(=O)[C@H]1CN(CCn2c(=O)[nH]c3ccccc3c2=O)CC[C@H]1c1ccccc1N(C)C` (racemic) (as salt: HCl) [Compound 5bb, (±)-syn-Ethyl 4-(2-(dimethylamino)phenyl)-1-(2-(2,4-dioxo-1,2-dihydroquinazolin-3(4H),-yl)ethyl) piperidine-3-carboxylate], the melting point was 208 to 209 °C.
Work on `CCOC(=O)[C@H]1CN(CCn2c(=O)[nH]c3ccccc3c2=O)CC[C@H]1c1cccc(C)c1` (racemic) (as salt: HCl) [Compound 5y, (±)-syn-Ethyl 1-(2-(2,4-dioxo-1,2-dihydroquinazolin-3(4H),-yl)ethyl)-4-(m-tolyl)piperidine-3-carboxylate] yielded a melting point of 148.5 to 150 °C.
For `CC(C)OC(=O)[C@H]1CN(CCn2c(=O)[nH]c3ccccc3c2=O)CC[C@H]1c1ccc(F)cc1` (racemic) (as salt: HCl) [Compound 10b, (±)-syn-Isopropyl 1-(2-(2,4-dioxo-1,2-dihydroquinazolin-3(4H),-yl)ethyl)-4-(4-fluorophenyl)piperidine-3-carboxylate], the melting point was 157.5 to 159 °C.
